{
  "source": "patent EP0265185A2",
  "about": "“Cephalosporins, processes for their preparation and pharmaceutical compositions containing them” (BEECHAM GROUP PLC, priority 1986, dated 1988)",
  "key": {"[1]": {"tested_on": "Pseudomonas aeruginosa 10662", "test": "Minimum inhibitory concentration by serial dilution in agar", "format": "cell-based", "description": "(§1) Minimum inhibitory Concentration (MIC) values of compounds of the invention against Enterobacter cloacae P99 and Pseudomonas aeruginosa 10662 were determined by serial dilution in agar. The plates were inoculated with 104 colony forming units and incubated overnight at 37°C. The MIC values recorded in Tables 1 and 2 were the lowest concentration of antibiotic to inhibit growth."}, "Enterobacter cloacae P99": {"tested_on": "Enterobacter cloacae P99", "test": "Minimum inhibitory concentration by serial dilution in agar", "format": "cell-based", "description": "as §1"}, "[2]": {"details": "Pseudomonas aeruginosa 10662, serial dilution in agar, inoculated with 104 colony forming units, incubated overnight at 37°C, lowest concentration to inhibit growth, read-out: MIC"}},
  "note": "Counter-ions that a name gives are not always drawn. Like-named read-outs stand apart in the source and are kept apart here.",
  "data": [
    {"smiles": "CCN1CCN(C(=O)N[C@@H](C(=O)N[C@]2(NC=O)C(=O)N3C(C(=O)[O-])=C(CNC(=O)c4ccc(O)c(O)c4)CS[C@@H]32)c2ccccc2)C(=O)C1=O.[Na+]", "note": "[Example 7, Sodium (6R,7R)-3-(3,4-Dihydroxybenzoyl)aminomethyl7-[(R)-2-(4-ethyl-2,3-dioxopiperazin-1-ylcarbonylamino) -2-phenylacetamido]-7-formamido-ceph-3-em-4-carboxylate]", "values": [
      {"measurement": "MIC", "setting": "[1]; Pseudomonas aeruginosa, 10662", "value": "≤ 0.03", "unit": "µg/mL"},
      {"measurement": "MIC", "setting": "Enterobacter cloacae P99", "value": 0.25, "unit": "µg/mL"}
    ]},
    {"smiles": "CO/N=C(\\C(=O)N[C@@H]1C(=O)N2C(C(=O)O)=C(COC(C)=O)CS[C@H]12)c1csc(N)n1", "note": "[Compound A, cefotaxime, reference compound]", "values": [
      {"measurement": "MIC", "setting": "[1]; [2]", "value": 16, "unit": "µg/mL"},
      {"measurement": "MIC", "setting": "Enterobacter cloacae P99", "value": "≥ 128", "unit": "µg/mL"}
    ]},
    {"smiles": "CCN1CCN(C(=O)N[C@@H](C(=O)N[C@]2(NC=O)C(=O)N3C(C(=O)O)=C(COC(C)=O)CS[C@@H]32)c2ccccc2)C(=O)C1=O", "note": "[Compound B, 7β-[D-2-[(4-ethyl-2,3-dioxopiperazin-1-yl)carbonylamino]-2-phenylacetamido]-7α-formamidocephalosporanic acid, sodium salt, reference compound]", "values": [
      {"measurement": "MIC", "setting": "[1]; [2]", "value": 16, "unit": "µg/mL"},
      {"measurement": "MIC", "setting": "Enterobacter cloacae P99", "value": 16, "unit": "µg/mL"}
    ]},
    {"smiles": "CO/N=C(\\C(=O)N[C@@H]1C(=O)N2C(C(=O)[O-])=C(COC(=O)c3ccc(O)c(O)c3)CS[C@H]12)c1csc(N)n1.[Na+]", "note": "[Example 10, Sodium (6R,7R)-7-[2-(2-amino-4-thiazolyl)-2-((Z)-methoxyimino)acetamido]-3-(3,4-dihydroxybenzoyloxy)methylceph-3-em-4-carboxylate]", "values": [
      {"measurement": "MIC", "setting": "[1]; Pseudomonas aeruginosa, 10662", "value": 0.12, "unit": "µg/mL"},
      {"measurement": "MIC", "setting": "Enterobacter cloacae P99", "value": 4, "unit": "µg/mL"}
    ]},
    {"smiles": "CCN1CCN(C(=O)N[C@@H](C(=O)N[C@]2(NC=O)C(=O)N3C(C(=O)[O-])=C(CN=[N+]=[N-])CS[C@@H]32)c2ccccc2)C(=O)C1=O.[Na+]", "note": "[Example 3, Sodium (6R,7R)-3-Azidomethyl-7-[(R)-2-(4-ethyl-2,3-dioxopiperazin-1-ylcarbonylamino)-2-phenylacetamido]-7-formamidoceph-3-em-4-carboxylate]", "values": [
      {"measurement": "MIC", "setting": "[1]; Pseudomonas aeruginosa, 10662", "value": 4, "unit": "µg/mL"},
      {"measurement": "MIC", "setting": "Enterobacter cloacae P99", "value": 4, "unit": "µg/mL"}
    ]},
    {"smiles": "CCN1CCN(C(=O)N[C@@H](C(=O)N[C@]2(NC=O)C(=O)N3C(C(=O)[O-])=C(CNC(=O)/C=C/c4ccc(OC(C)=O)c(OC(C)=O)c4)CS[C@@H]32)c2ccccc2)C(=O)C1=O.[Na+]", "note": "[Example 6, Sodium (6R,7R)-3-[(E)-3,4-Diacetoxycinnamoyl]aminomethyl-7-[(R)-2-(4-ethyl-2,3-dioxopiperazin-1-ylcarbonylamino)-2-phenylacetamido]-7-formamido-ceph-3-em-4-carboxylate]", "values": [
      {"measurement": "MIC", "setting": "[1]; Pseudomonas aeruginosa, 10662", "value": 0.12, "unit": "µg/mL"},
      {"measurement": "MIC", "setting": "Enterobacter cloacae P99", "value": 0.5, "unit": "µg/mL"}
    ]},
    {"smiles": "CCN1CCN(C(=O)N[C@@H](C(=O)N[C@]2(NC=O)C(=O)N3C(C(=O)[O-])=C(COC(=O)c4ccc(O)c(O)c4)CS[C@@H]32)c2ccccc2)C(=O)C1=O.[Na+]", "note": "[Example 1, Sodium (6R,7R)-3-(3,4-Dihydroxybenzoyloxy)methyl-7-[(R)-2-(4-ethyl-2,3-dioxopiperazin-1-yl)carbonylamino-2-phenylacetamido]-7-formamidoceph-3-em-4-carboxylate]", "values": [
      {"measurement": "MIC", "setting": "[1]; Pseudomonas aeruginosa, 10662", "value": "≤ 0.03", "unit": "µg/mL"},
      {"measurement": "MIC", "setting": "Enterobacter cloacae P99", "value": 0.12, "unit": "µg/mL"}
    ]}
  ]
}
